Structures are written as SMILES. The source made the active and inactive calls. The calls are words filed in the database; no cut-off is given here. Where a SMILES comes first, the peptide text is derived from it. The star is where a group is joined. Mob = COc1ccc(C*)cc1; Bn = c1ccc(C*)cc1

Here are results for three compounds from ChEMBL document CHEMBL1122827 (1985).

What all share (type): functional
Assay [1] is filed under the species Cavia porcellus. In words: The concentration required to produce 50% of the maximal effect in guinea pig ileum(GPI).
Assay [2] is filed under the species Cavia porcellus. Kind of assay: Relative affinity in guinea pig ileum(GPI) was determined.
The species entered for assay [3] is Cavia porcellus. Kind of assay: Intrinsic activity in guinea pig ileum(GPI) was determined.
The species entered for assay [4] is Cavia porcellus. In words: The concentration required to produce 50% of the maximal effect in guinea pig trachea(GPT) at 10e-4 M; Inactive.
The species entered for assay [5] is Oryctolagus cuniculus. Kind of assay: The concentration required to produce 50% of the maximal effect in rabbit mesenteric vein(RMV) at 10e-4 M; Inactive.
The species entered for assay [6] is Oryctolagus cuniculus. Kind of assay: Intrinsic activity in rabbit mesenteric vein(RMV) was determined.
The species entered for assay [7] is Cavia porcellus. In words: The concentration required to produce 50% of the maximal effect in guinea pig trachea(GPT).
For assay [8], the species on record is Cavia porcellus. Kind of assay: Relative affinity in guinea pig trachea(GPT) was determined.
Assay [9] is filed under the species Oryctolagus cuniculus. In words: Relative affinity in rabbit mesenteric vein(RMV) was determined.
The species named for assay [10] is Oryctolagus cuniculus. Kind of assay: The concentration required to produce 50% of the maximal effect in rabbit mesenteric vein(RMV).
Assay [11] is filed under the species Cavia porcellus. In words: Intrinsic activity in guinea pig trachea(GPT) was determined.

`CC(C)C[C@@H]1NC(=O)CNC(=O)[C@H](Cc2ccccc2)NC(=O)[C@H](Cc2ccccc2)NC(=O)[C@@H](N)CSSC[C@@H](C(N)=O)NC1=O` showed a pD2 in assay [1] of 4.83. In assay [2], this compound came in with an AR of 0.02. Besides, the “Alpha E” value in [3] is 0.7.

`CC(C)C[C@H]1NC(=O)CNC(=O)[C@@H](Cc2ccccc2)NC(=O)[C@H](Cc2ccccc2)NC(=O)[C@@H](N)CSSC[C@H](C(N)=O)NC1=O`: the pD2 result in assay [4] and in [5] was “inactive” throughout.

For `COc1ccc(CSC[C@H](N)C(=O)N[C@@H](CCC(N)=O)C(=O)N[C@@H](Cc2ccccc2)C(=O)N[C@@H](Cc2ccccc2)C(=O)NCC(=O)N[C@@H](CC(C)C)C(=O)N[C@@H](CSCc2ccccc2)C(N)=O)cc1` (H-C(Mob)QFFGLC(Bn)-NH2), the figures for the pD2 in assay [1], in assay [7] and in assay [10] were 6.37, 5.22 and 5.98, respectively. For the same compound, the “Alpha E” value was 0.4 in assay [6], 0.8 in assay [11] and 1.2 in assay [3]. Besides, the AR in [8] was determined as 3; in [9] it was 2.8; in assay [2] it was 0.8.
